In patent US20240165199A1, “PROX1 PREVENTS MYXOMATOUS VALVE DISEASE BY INHIBITING PDGF-B SIGNALING” (Oklahoma Medical Research Foundation, priority 2022, published 2024):
Entries after “also recorded” stand apart in the source; their conditions may differ. Like-named read-outs stand apart in the source and are kept apart here.

What was measured:
PDGFRα = PDGFRα (Homo sapiens, UniProt P16234); conditions: cited from earlier work
c-Kit = c-Kit (Homo sapiens, UniProt P10721); conditions: cited from earlier work
PDGFRβ = PDGFRβ (Homo sapiens, UniProt P09619); conditions: not specific for PDGFRβ; cited from earlier work
Prox1^ΔVEC mice = conditions: 50 mg/kg body weight/day oral; for aortic peak velocity: 24 weeks from 1 month of age, echocardiography, vs untreated Prox1^ΔVEC mice; for aortic peak velocity / platelet aggregate-like (thrombus-like) structures in aortic valves / abnormal elastin expression/distribution in aortic valves / aortic valve thickness (progressive thickening) / versican expression in aortic valves: 50 mg/kg/day; for platelet aggregate-like (thrombus-like) structures in aortic valves / abnormal elastin expression/distribution in aortic valves / aortic valve thickness (progressive thickening) / versican expression in aortic valves: 24 weeks; for platelet aggregate-like (thrombus-like) structures in aortic valves: Movat Pentachrome-stained sections; for abnormal elastin expression/distribution in aortic valves: downstream side of aortic valves; for aortic valve thickness (progressive thickening): histology, area of valve leaflets; for versican expression in aortic valves: immunohistochemistry; for valve defects / progression of valve disease: mice lacking Prox1 (Prox1^ΔVEC)
[1] = tested on: patients with PDGFRβ hyperactivating mutations; conditions: cited from earlier work

Chain of PDGFRα (P16234 24-1089, species assumed): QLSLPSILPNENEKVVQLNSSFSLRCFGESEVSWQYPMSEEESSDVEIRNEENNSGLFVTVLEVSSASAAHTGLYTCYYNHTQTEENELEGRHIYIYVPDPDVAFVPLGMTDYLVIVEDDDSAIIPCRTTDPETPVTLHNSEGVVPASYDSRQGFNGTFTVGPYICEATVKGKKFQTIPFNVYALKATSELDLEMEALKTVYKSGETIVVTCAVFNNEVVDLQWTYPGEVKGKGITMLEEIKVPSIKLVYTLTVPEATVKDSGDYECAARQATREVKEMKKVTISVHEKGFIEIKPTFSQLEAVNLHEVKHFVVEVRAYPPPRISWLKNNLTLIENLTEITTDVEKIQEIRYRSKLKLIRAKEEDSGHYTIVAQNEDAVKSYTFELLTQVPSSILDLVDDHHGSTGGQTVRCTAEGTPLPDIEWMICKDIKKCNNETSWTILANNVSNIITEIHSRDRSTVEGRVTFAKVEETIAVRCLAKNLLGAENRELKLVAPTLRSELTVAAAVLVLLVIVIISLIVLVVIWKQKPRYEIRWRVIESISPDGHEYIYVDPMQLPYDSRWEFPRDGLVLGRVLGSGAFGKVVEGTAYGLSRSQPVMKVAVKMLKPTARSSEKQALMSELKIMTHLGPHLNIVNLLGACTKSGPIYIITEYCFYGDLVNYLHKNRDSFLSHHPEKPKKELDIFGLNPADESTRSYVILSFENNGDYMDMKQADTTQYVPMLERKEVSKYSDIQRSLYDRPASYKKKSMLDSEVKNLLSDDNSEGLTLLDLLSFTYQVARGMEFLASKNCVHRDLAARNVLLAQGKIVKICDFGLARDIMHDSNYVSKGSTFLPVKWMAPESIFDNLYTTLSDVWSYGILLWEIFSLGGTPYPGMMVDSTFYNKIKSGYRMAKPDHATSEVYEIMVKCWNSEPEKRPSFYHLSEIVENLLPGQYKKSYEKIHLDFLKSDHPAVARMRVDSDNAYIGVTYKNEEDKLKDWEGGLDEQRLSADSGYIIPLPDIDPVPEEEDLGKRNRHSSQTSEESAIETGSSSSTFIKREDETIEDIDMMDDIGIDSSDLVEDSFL
Chain of PDGFRβ (P09619 33-1106): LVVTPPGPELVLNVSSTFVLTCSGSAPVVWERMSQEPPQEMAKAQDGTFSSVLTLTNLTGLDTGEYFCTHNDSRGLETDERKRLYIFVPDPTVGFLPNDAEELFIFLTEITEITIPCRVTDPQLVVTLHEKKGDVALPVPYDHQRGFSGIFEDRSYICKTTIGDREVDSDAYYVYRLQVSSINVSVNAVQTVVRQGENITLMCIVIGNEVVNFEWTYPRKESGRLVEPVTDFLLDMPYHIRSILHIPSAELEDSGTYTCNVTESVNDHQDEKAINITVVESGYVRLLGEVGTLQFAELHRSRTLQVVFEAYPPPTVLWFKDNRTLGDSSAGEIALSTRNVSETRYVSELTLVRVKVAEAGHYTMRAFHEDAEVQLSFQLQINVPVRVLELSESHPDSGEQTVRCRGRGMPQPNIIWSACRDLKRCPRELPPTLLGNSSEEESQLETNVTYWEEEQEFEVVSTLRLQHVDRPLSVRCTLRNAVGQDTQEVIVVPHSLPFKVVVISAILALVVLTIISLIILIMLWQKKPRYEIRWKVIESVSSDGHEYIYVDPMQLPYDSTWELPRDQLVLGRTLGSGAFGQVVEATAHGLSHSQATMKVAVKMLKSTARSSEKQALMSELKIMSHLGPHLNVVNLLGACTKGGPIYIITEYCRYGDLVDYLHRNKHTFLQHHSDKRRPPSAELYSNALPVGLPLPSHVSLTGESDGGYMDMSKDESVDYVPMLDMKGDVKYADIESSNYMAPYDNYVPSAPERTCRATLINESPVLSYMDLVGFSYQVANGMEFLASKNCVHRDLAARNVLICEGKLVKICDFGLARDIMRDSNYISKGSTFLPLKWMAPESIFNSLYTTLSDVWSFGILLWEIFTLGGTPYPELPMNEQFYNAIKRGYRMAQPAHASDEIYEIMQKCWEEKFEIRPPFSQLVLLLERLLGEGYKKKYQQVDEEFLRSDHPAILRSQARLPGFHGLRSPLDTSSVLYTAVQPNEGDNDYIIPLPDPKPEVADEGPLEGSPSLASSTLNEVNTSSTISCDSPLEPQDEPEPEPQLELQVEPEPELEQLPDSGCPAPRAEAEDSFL
Chain of c-Kit (P10721 26-976): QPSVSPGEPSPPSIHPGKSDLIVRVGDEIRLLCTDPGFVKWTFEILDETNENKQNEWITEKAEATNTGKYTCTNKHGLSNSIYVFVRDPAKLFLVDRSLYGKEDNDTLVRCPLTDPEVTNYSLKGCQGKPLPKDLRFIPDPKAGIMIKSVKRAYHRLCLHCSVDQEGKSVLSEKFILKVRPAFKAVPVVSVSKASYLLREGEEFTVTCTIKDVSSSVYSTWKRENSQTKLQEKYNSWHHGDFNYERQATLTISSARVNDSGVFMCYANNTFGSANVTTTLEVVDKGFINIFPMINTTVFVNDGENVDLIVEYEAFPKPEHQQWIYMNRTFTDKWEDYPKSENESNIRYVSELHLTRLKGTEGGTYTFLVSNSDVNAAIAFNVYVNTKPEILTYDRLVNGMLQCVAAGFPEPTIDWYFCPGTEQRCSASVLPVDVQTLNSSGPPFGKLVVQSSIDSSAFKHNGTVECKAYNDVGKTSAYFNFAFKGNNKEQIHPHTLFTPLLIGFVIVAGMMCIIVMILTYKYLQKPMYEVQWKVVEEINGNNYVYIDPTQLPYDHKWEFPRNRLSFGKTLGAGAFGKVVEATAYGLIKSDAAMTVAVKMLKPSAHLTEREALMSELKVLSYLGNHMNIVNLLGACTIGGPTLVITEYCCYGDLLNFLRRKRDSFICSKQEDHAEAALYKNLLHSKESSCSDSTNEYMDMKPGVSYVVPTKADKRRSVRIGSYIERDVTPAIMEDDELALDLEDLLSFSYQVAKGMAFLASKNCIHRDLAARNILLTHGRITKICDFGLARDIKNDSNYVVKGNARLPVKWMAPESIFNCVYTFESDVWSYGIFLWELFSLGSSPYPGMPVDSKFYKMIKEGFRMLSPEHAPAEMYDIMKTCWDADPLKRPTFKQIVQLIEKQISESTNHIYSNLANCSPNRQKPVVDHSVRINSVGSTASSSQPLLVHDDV

## Cc1ccc(NC(=O)c2ccc(CN3CCN(C)CC3)cc2)cc1Nc1nccc(-c2cccnc2)n1 [imatinib]
PDGFRα
  inhibition of kinase activity: inhibits the activity
c-Kit
  inhibition of kinase activity: inhibits the activity
PDGFRβ
  inhibition of kinase activity: inhibits the activity
Prox1^ΔVEC mice; Prox1^ΔVEC mice, 6 months
  elastin expression in mitral valves: significantly normalized
  expression of SOX9 in the aortic and mitral valves: normalized
  thickness of the mitral valves: did not reduce
  versican expression in mitral valves: significantly normalized
Prox1^ΔVEC mice; Prox1^ΔVEC mice
  aortic peak velocity: preventing an increase in peak velocity
  platelet aggregate-like (thrombus-like) structures in aortic valves: reduced by imatinib treatment
  abnormal elastin expression/distribution in aortic valves: significantly reduced
  aortic valve thickness (progressive thickening): does not ameliorate the progressive thickening
  versican expression in aortic valves: reduced the expression of versican
Prox1^ΔVEC mice; Prox1^ΔVEC mice, listed as Imb
  aortic peak velocity: lowered aortic peak velocity
  platelet aggregate-like (thrombus-like) structures in aortic valves: reduced
  abnormal elastin expression/distribution in aortic valves: rescued
  aortic valve thickness (progressive thickening): not reduced
  versican expression in aortic valves: inhibited
Prox1^ΔVEC mice; 6 months
  valve defects / progression of valve disease: partially rescue the valve defects; also recorded: prevents the progression of valve disease
Prox1^ΔVEC mice; 6 months, listed as Imatinib
  valve defects / progression of valve disease: Attenuates Aortic Valve Degeneration
[1]
  connective tissue disorders: ameliorated
